Data as given in patent US8765783B2, “Pharmaceutical composition for treatment of disease due to vascular constriction or vasodilation” (Ono Pharmaceuticals Co., Ltd., priority 2002, dated 2014).
“Also recorded” adds a separate entry of the source.

Key:
[1] = system: rat basilar artery; assay: Vasoconstrictor action of rat basilar artery induced by S1P into cisterna (in vivo); settings: 10 μg/100 μL/rat, i.c., 30 minutes after S1P into cisterna
Excerpt: Rat (CD(SD)IGS, male, Charles River Japan Inc., 11 weeks old-13 weeks old, 400-550 g) was anesthetized by injection of urethane (1.2 g/kg, s.c.), incised scalp of occipital for administration of S1P into cisterna and then fixed to dorsal position. Rat was inserted into trachea with catheter and then, cut down with esophagus, and skull at the base of brain was exposed. Under the stereomicroscope, craniotomy was carefully operated with electric drill and scorper forceps. We made basilar artery expose, and it was done in the condition which arachnoid was left, and coating on basilar artery was exfoliated, and could be observed. Observation and image capture of basilar artery were performed using the stereomicroscope (Olympus Optics Inc., SZH-10) and charge-coupled device (CCD) camera (FUJIFILM, HC-2500) connected with it. Macscope (MITANI Corp.) was used as an Image capture software. […] Diameter of basilar artery was measured by selecting from an area having no branch in the center of basilar artery. The diameter was calculated by comparing with the length of micrometer (0.2 mm, 0.01 mm scale) shooted in the same condition. […] The calculation of percentage of basilar artery diameter was calculated by dividing diameter after the S1P administration by a pre-value. […]

[2] = system: rat dural blood flow; assay: Decrease of dural blood flow induced by S1P; assay type: in vivo; settings: 10 mg/kg through femoral vein; S1P 300 μg/kg into cisterna
Excerpt: Rat (CD(SD)IGS, male, Charles River Japan Inc., 10 weeks old-13 weeks old, 450-520 g) was anesthetized by injection of urethane (1.2 g/kg, s.c.), placed in the femoral vein with catheter (polyethylene tube SP10; I.D. 0.28 mm, O.D. 0.61 mm: Natsume Seisakusho Co. Ltd.) for compounds administration, and then blood flow to brain through only vertebral artery was made to happen by tying both sides of common carotid arteries. Next, the scalp was cut open and the head region was exposed in order to measure dural blood flow and administer into cisterna. In addition, the trachea was placed with catheter (polyethylene tube; size 7.9: Hibiki) and it connected to the artificial respirator. The measurement of dural blood flow was performed to transmit with 1a ser light to skull using Moon Laser Doppler Imager (Moor LDI) [about 11cm distant from measuring object, about 150 dots both of XY measurement resolution, scanning about 2.8×2.8 cm area (150dots/2.8 cm)]. In addition, measurement condition involved in flux calculation (FLUX; relative value) such as sensitivity -gain etc., was integrated within all experiment. The images of blood flow were captured through the capture software, moor LDI Measurement V3.08, and image data was treated with analyzed software, moor LDI Image Processing V3.08. […]

Cc1nn(C)c2nc(NNC(=O)Nc3cc(Cl)nc(Cl)c3)cc(C(C)C)c12 [compound (3), N-(2,6-dichloro-4-piridinyl)-2-(4-isopropyl-1,3-dimethyl-1H-pyrazolo[3,4-b]pyridin-6-yl)hydrazinecarboxamide]
inhibition of vasoconstrictor action of rat basilar artery by S1P (basilar artery diameter) [1]: inhibited; also recorded: suppression | inhibition of decrease of dural blood flow by S1P [2]: inhibited; also recorded: suppression
